One assay deals with Pituitary cells. Nature of the assay: Pituitary Cell Culture Assay for Growth Hormone Secretion. It counts as cell-based, rat (male Sprague-Dawley). The note with it: 0.25 h, read-out: GH secretion EC50; heading: GH secretion EC50; rat anterior pituitary cells, 15 min at 37° C.; Examples Part 1. The text has this:
Thirty-two 250 g male Sprague-Dawley rats were used for each assay. The animals were killed by decapitation and anterior pituitaries were removed and placed into ice cold culture medium. The pituitaries were sectioned into eighths and enzymatically digested using trypsin (Sigma Chemical) to weaken connective tissue. Pituitary cells were dispersed by mechanical agitation, collected, pooled and then seeded into 24-well plates (300,000 cells/well). After 4 days of culture, the cells formed an even monolayer. Cells were then washed with medium and challenged to secrete GH by the addition of GH secretagogues to the medium. After 15 min at 37° C., the medium was removed and stored frozen until radioimmunoassays for rat GH were performed. Doses of secretagogue were added in quadruplicate. Compounds disclosed herein are active in the assay as described. Both EC50 and efficacy values were calculated by the 4-parameter logistic equation. Such values were pooled and represented as mean +/- standard error, when appropriate.

The subject of another assay is heart failure. The note with it: cited from earlier work.

As for `COC(=O)[C@@H]1CCCN1C(=O)C(c1ccccc1)n1cnc(NC(=O)[C@@H](COCc2ccccc2)NC(=O)C(C)(C)N)c1` (stereo partly drawn) [Example 6], the 50% effective concentration (EC50) in the assay with Pituitary cells came to 5.53 µM. For the molecule `COc1ccccc1OCCNCC(O)COc1cccc2[nH]c3ccccc3c12` (stereo not drawn) [Carvedilol], in the assay on heart failure, the mortality in patients entry is given as “dramatic reductions in mortality in patients”.

As for `COC(=O)[C@@H]1CCCN1C(=O)C(c1ccccc1)n1cnc(NC(=O)[C@H](COCc2ccccc2)NC(=O)C(C)(C)N)c1` (stereo partly drawn) [Example 8], the EC50 in the assay with Pituitary cells came out at 2.39 µM.

The term EC50 denotes the concentration at which the effect is half-maximal.

The record behind these values is patent US6329342A, “Treatment of congestive heart failure with growth hormone secretagogues” (Eli Lilly and Company, priority 2000, dated 2001).
